Paper PMC7939474 (The Journal of Biological Chemistry, 2021)

Target: T1, VcINDY WT (Vibrio cholerae, UniProt Q9KNE0)
T1 construct: gene VC_A0025
Test: biochemical

In the case of `O=C(O)CCC(=O)O` [succinate], the Kd is reported as 4.3 ± 1.5 mM.
